Literature values, collected in patent publication US20210363254A1, “PHARMACEUTICAL COMBINATIONS” (Novartis AG, priority 2018, published 2021).

Tested on: renal cell carcinoma (RCC)
Details: RCC patients beyond first-line therapy; cited from earlier work

For “Nivolumab: inhibitor of the PD-1/PD-L1 interaction approved for use in RCC”, the “OS benefit compared with everolimus” value is given as 5.4 months and the “median OS” value is given as 25 months.
